From ChEMBL document CHEMBL1201862, “PubChem BioAssay data set” (2004)
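All cell lines were grown in 96-well plates and treated with compound for 48 hours. GI50: concentration for 50% inhibition of growth.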 Calls of active or inactive are those of the source. Rule as the data show it: active = GI50 up to about 1.1 µM and inactive = higher.

Key:
Test in all cases: NCI-60 cell line screen, 48 h
UACC-257 = test system: UACC-257
SK-MEL-28 = test system: SK-MEL-28
SW-620 = test system: SW-620
KM12 = test system: KM12
RPMI-8226 = test system: RPMI-8226
NCI-H522 = test system: NCI-H522
SF-539 = test system: SF-539
K562 = test system: K562
NCI-H23 = test system: NCI-H23
SK-MEL-2 = test system: SK-MEL-2
SNB-19 = test system: SNB-19
MOLT-4 = test system: MOLT-4
Malme-3M = test system: Malme-3M
M14 = test system: M14
OVCAR-8 = test system: OVCAR-8
SR = test system: SR
IGROV-1 = test system: IGROV-1
NCI-H226 = test system: NCI-H226
LOX IMVI = test system: LOX IMVI

Measured: GI50

COc1cc2c(cc1OC)C1Cc3ccc(OC)c(OC)c3C[N+]1([O-])CC2 (centres undefined)
inactive: UACC-257 > 100 µM | SK-MEL-28 > 100 µM | SW-620 > 100 µM | KM12 > 100 µM | RPMI-8226 74.5 µM | NCI-H522 > 100 µM | SF-539 > 100 µM | K562 > 100 µM | NCI-H23 > 100 µM | SK-MEL-2 > 100 µM | SNB-19 > 100 µM | MOLT-4 > 100 µM | Malme-3M > 100 µM | M14 > 100 µM | OVCAR-8 > 100 µM

CC(C)N(C(=O)C12C3C4C5(C(=O)O)C(C1C35I)C42C(=O)O)C(C)C (centres undefined)
inactive: SR > 100 µM | UACC-257 > 100 µM | SK-MEL-28 > 100 µM | SW-620 > 100 µM | IGROV-1 > 100 µM | KM12 > 100 µM | NCI-H522 > 100 µM | SF-539 > 100 µM | K562 > 100 µM | NCI-H23 > 100 µM | NCI-H226 > 100 µM | SNB-19 > 100 µM | MOLT-4 > 100 µM | Malme-3M > 100 µM | M14 > 100 µM | OVCAR-8 > 100 µM

COc1cc(/C=C2\C(=O)N(c3ccccc3Cl)C(c3ccccc3)S2(=O)=O)cc(OC)c1OC (centres undefined)
inactive: LOX IMVI 21.7 µM | UACC-257 51.1 µM | SK-MEL-28 39 µM | SW-620 37.3 µM | KM12 27.2 µM | RPMI-8226 17.2 µM | NCI-H522 20.9 µM | SF-539 20 µM | K562 22 µM | NCI-H23 39.1 µM | NCI-H226 42 µM | SK-MEL-2 44.1 µM | SNB-19 34.7 µM | MOLT-4 15.3 µM | Malme-3M 28.7 µM | M14 31.9 µM | OVCAR-8 45.8 µM

O=C(/C=C/c1ccc([N+](=O)[O-])cc1)c1ccc(NCc2nc3ccccc3[nH]2)cc1
inactive: LOX IMVI 2.43 µM | SR 3.34 µM | UACC-257 3.41 µM | SK-MEL-28 13 µM | SW-620 2.25 µM | IGROV-1 4.48 µM | KM12 1.78 µM | NCI-H522 3.26 µM | SF-539 2.84 µM | K562 2.3 µM | NCI-H23 3.75 µM | SK-MEL-2 14.9 µM | SNB-19 3.56 µM | MOLT-4 3.51 µM | Malme-3M 14.2 µM | M14 11.5 µM | OVCAR-8 2.68 µM

CCOP(=S)(OCC)Oc1ccc2c(c1)OC(=O)C1(Cl)C2(C)C2(Cl)C(=O)Oc3cc(OP(=S)(OCC)OCC)ccc3C12C (centres undefined)
inactive: LOX IMVI 19 µM | UACC-257 17.7 µM | SK-MEL-28 16.5 µM | SW-620 16.7 µM | IGROV-1 17.3 µM | KM12 15.5 µM | RPMI-8226 11.1 µM | NCI-H522 10.4 µM | SF-539 11.1 µM | K562 27.3 µM | NCI-H23 > 10 µM | NCI-H226 15.1 µM | SK-MEL-2 20.4 µM | SNB-19 4.8 µM | MOLT-4 20.9 µM | Malme-3M 22.6 µM | M14 17.7 µM | OVCAR-8 16.3 µM

COC1=NCc2ccccc2-c2ccccc21
inactive: LOX IMVI > 100 µM | UACC-257 > 100 µM | SK-MEL-28 > 100 µM | KM12 > 100 µM | NCI-H522 > 100 µM | SF-539 > 100 µM | K562 > 100 µM | NCI-H23 > 100 µM | NCI-H226 > 100 µM | SK-MEL-2 > 100 µM | SNB-19 > 100 µM | MOLT-4 > 100 µM | Malme-3M > 100 µM | OVCAR-8 > 100 µM

COC(=O)C1=C(c2cc(OC)c(OC)c(OC)c2)OC(c2ccc(OC)c(OC)c2)C1 (centres undefined)
inactive: LOX IMVI 29.3 µM | SR 51.6 µM | UACC-257 40.6 µM | SK-MEL-28 79.8 µM | SW-620 33.5 µM | IGROV-1 61.1 µM | KM12 29.2 µM | RPMI-8226 75.2 µM | SF-539 42.9 µM | K562 45.1 µM | NCI-H23 78.2 µM | NCI-H226 96.6 µM | SK-MEL-2 61.2 µM | MOLT-4 18.9 µM | Malme-3M > 100 µM | M14 61.1 µM | OVCAR-8 47.9 µM

CN(C)C(=S)/N=c1\ss/c(=N\S(=O)(=O)c2ccccc2)n1N(C)C
inactive: SR 41.2 µM | UACC-257 > 100 µM | SK-MEL-28 > 100 µM | SW-620 > 100 µM | IGROV-1 > 100 µM | KM12 > 100 µM | RPMI-8226 62.7 µM | NCI-H522 4.92 µM | SF-539 > 100 µM | K562 59.8 µM | NCI-H226 > 100 µM | SK-MEL-2 > 100 µM | SNB-19 > 100 µM | MOLT-4 > 100 µM | Malme-3M > 100 µM | M14 > 100 µM | OVCAR-8 > 100 µM

CN(C)NC(=O)NC12CC3CC(CC(C3)C1)C2
inactive: LOX IMVI > 100 µM | SR > 100 µM | UACC-257 > 100 µM | SK-MEL-28 > 10 µM | SW-620 > 100 µM | IGROV-1 > 100 µM | KM12 > 100 µM | RPMI-8226 > 100 µM | NCI-H522 > 100 µM | SF-539 > 100 µM | K562 > 100 µM | NCI-H23 > 100 µM | NCI-H226 > 100 µM | SK-MEL-2 > 100 µM | SNB-19 > 100 µM | MOLT-4 > 100 µM | OVCAR-8 > 100 µM

O=C(n1c2ccccc2c2nnc(S)nc21)C(F)(F)F
inactive: LOX IMVI > 100 µM | SK-MEL-28 60.5 µM | SW-620 > 100 µM | IGROV-1 > 100 µM | KM12 > 100 µM | NCI-H522 > 100 µM | SF-539 > 100 µM | K562 > 100 µM | NCI-H23 > 100 µM | NCI-H226 > 100 µM | SK-MEL-2 > 10 µM | SNB-19 > 100 µM | MOLT-4 > 100 µM | Malme-3M > 100 µM | M14 > 100 µM | OVCAR-8 > 100 µM

COc1cccc(/C=N/[N-]C(=S)Nc2ccccc2)c1[O-].O.[Zn+2]
inactive: LOX IMVI 53.7 µM | UACC-257 55.5 µM | SK-MEL-28 > 100 µM | SW-620 56.4 µM | IGROV-1 52 µM | KM12 40.6 µM | RPMI-8226 66.8 µM | NCI-H522 19.7 µM | SF-539 66.4 µM | K562 42 µM | NCI-H23 37.7 µM | NCI-H226 37.8 µM | SK-MEL-2 63.7 µM | SNB-19 66.1 µM | MOLT-4 28.6 µM | Malme-3M 86.5 µM | M14 44.5 µM | OVCAR-8 35.5 µM

Cc1ccc(-n2c3nc(=O)n(C)c(=O)c-3nc3ccccc32)c(C)c1
inactive: LOX IMVI 12.6 µM | UACC-257 3.6 µM | SW-620 5.57 µM | IGROV-1 15.1 µM | KM12 8.18 µM | RPMI-8226 12.8 µM | NCI-H522 15.4 µM | SF-539 13.2 µM | K562 16.4 µM | NCI-H23 1.9 µM | NCI-H226 14.9 µM | SK-MEL-2 12.9 µM | SNB-19 5.28 µM | MOLT-4 13.9 µM | Malme-3M 3.92 µM | M14 4.76 µM | OVCAR-8 8.18 µM
